Assays:
[1] = molecular target: T1, tBID (Mus musculus, UniProt P70444); experiment: tBID-induced Smac release from isolated mitochondria; format: biochemical; settings: 50 μM compound; isolated mitochondria
T1 construct: tBID was produced by cleavage of purified BID with caspase-8, as known in the art; made in house; host or cells: E. coli BL21 (BID), then cleaved in vitro with caspase-8
T1 sequence (P70444 60-195 limits assumed): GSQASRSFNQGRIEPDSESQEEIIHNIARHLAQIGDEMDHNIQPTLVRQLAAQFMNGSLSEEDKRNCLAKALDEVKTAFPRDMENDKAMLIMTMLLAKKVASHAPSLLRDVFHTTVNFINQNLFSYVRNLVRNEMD
T1 sequence (P70444 1-59 partner limits assumed): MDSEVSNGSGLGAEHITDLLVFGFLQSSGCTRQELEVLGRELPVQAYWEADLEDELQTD
Procedure: 100 ng of tBID (cleaved by caspase 8) was pre-incubated with various concentrations of compounds for 15 minutes at 30° C. in HM buffer (10 mM Hepes, pH 7.4, 250 mM Mannitol, 10 mM KCl, 1.5 mM MgCl, 1 mM DTT, 1 mM EGTA), then 50 μg of isolated mitochondria from HCT116 cells were added to a final volume of 50 μl in HM buffer. After 1 hour incubation at 30° C., the samples were centrifuged at 10,000×g for 5 minutes at 4° C. and the supernatant was analyzed by SDS-PAGE/immunoblotting using anti-SMAC antibody.
Compounds II-IX were tested in vitro for their ability to inhibit BID-mediated release of Smac using mitochondria isolated from HeLa cells (FIG. 6A). The first lane represents mitochondria incubated without tBID. All others received 100 ng tBID without or with compounds. Each compound was tested at a concentration of 50 μM. […] To preliminarily investigate the mechanism by which compound II reduces Smac-release from isolated mitochondria, the tBID protein was treated with different concentrations of BI-6C9, after which it was incubated with mitochondria, followed by analysis of the bound and unbound fractions by immunoblotting using BID antibody. The concentration of mitochondria-bound tBID diminished in response to increasing concentrations of compound II.
About 50 ng of tBID cleaved by […] was pre-incubated for about 15 minutes at about 30° C. with various concentrations of compounds I, II, and X. Then, about 50 μg of isolated mitochondria from Hela cells were added to the reaction system. After about 1 hour of incubation at about 30° C., the samples were centrifuged at 10,000×g for about 5 minutes at about 4° C., and the supernatant was analyzed by SDS-PAGE/immunoblotting using Smac antibody. The results of the analysis are presented on FIG. 8. As shown by FIG. 9, compound I is a strong binder for BID.
Some results of comparative studies of compounds I and II are shown on FIG. 10. […] The first lane represents mitochondria incubated without tBID. All others received 50 ng tBid without or with bi-dentate compound.

[2] = molecular target: T2, BID (Mus musculus, UniProt P70444); experiment: NMR binding to BID (HSQC/TROSY chemical shifts); settings: NMR
T2 construct: poly-His (N); made in house; host or cells: E. coli BL21
T2 sequence (P70444 1-195): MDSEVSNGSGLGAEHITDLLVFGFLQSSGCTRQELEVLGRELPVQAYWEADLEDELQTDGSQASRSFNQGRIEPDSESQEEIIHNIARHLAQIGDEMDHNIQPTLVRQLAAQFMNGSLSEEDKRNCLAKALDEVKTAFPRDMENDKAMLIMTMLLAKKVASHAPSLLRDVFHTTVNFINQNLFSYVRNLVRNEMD
Procedure: Recombinant full length mouse BID was produced from a pET-19b (Novagen) plasmid construct containing the entire nucleotide sequence for BID fused to an N-terminal poly-His tag. Unlabeled BID was expressed in E. coli BL21 in LB media at 37° C., with an induction period of 3-4 hours with 1 mM IPTG. ^15N-labeled BID was similarly produced, with growth occurring in M9 media supplemented with 0.5 g/L ^15NH4Cl. ε-^13C-Met labeled BID was produced in M9 media supplemented with 50 mg/L of ε-^13C-Met at time of induction with IPTG. Following cell lysis, soluble BID was purified over a Hi-Trap chelating column (Amersham, Pharmacia), followed by ion-exchange purification with a MonoQ (Amersham, Pharmacia) column. Final BID samples were dialyzed into a buffer appropriate for the subsequent experiments. tBID was produced by cleavage of purified BID with caspase-8, as known in the art.
For all NMR experiments, BID was exchanged into 50 mM phosphate buffer at pH 7.5 and measurements were performed at 30° C. 2D [^15N,^1H]-TROSY spectra for BID were measured with 0.5 mM samples of ^15N-labeled BID. 2D [^13C,^1H]-HSQC spectra were measured with 0.2 mM samples of ε-^13C-Met labeled BID. 2D [^1H,^1H]-NOESY spectra were acquired with small molecules at a concentration of 0.9 mM in the presence of 10 μM BID. T1ρ competition experiments (200 msec spin-lock duration) were performed on either 100 μM BI-2A7 or a mixture of 100 μM BI-2A7 and 10 μM BI-6C9, in the presence and absence of 10 μM BID. All experiments were performed with either a 500 MHz or 600 MHz Bruker Avance spectrometer, both equipped with TXI probes. Typical parameters for the 2D [^15N,^1H]-TROSY spectra included ^1H and ^15N π/2 pulse lengths of 11 μsec and 40 μsec, respectively; ^1H and ^15N sweep widths of 12 ppm and 32 ppm, respectively; 16 scans and 256 indirect acquisition points and a recycle delay of 1 sec. For the 2D [^13C,^1H]-HSQC typical parameters included ^1H and ^13C π/2 pulse lengths of 10 μsec and 13 μsec, respectively; ^1H and ^13C sweep widths of 12 ppm and 5 ppm, respectively; 128 scans and 80 indirect acquisition points and a recycle delay of 1 sec. […]
To examine the binding affinity of some compounds of the invention to BID, 2D [^13C,^1H]-HSQC spectra in presence of ^13C methionine-labeled protein were measured, as at least one methionine is present in the hydrophobic groove of BID (FIG. 4B). […]
Monitoring the variation of cross-peak intensity upon addition of increasing amounts of compound II, allowed to estimate its dissociation constant KD. The arrow on FIG. 5C indicates the peak that was monitored to determine the Kd for compound II. […]

Row | inhibition at 50 µM [1] | Compound | binding to BID [2]
1 | 24% | COc1ccc(S(=O)(=O)NCCCC(=O)Nc2ccc(Sc3ccc([N+](=O)[O-])cc3)cc2)cc1 [Compound III, 4-(4-methoxy-benzenesulfonylamino)-N-[4-(4-nitro-phenylsulfanyl)-phenyl]-butyramide] | –
2 | 60% | NCCCCCC(=O)Nc1ccc(Sc2ccc([N+](=O)[O-])cc2)cc1 [Compound IX, 6-amino-hexanoic acid [4-(4-nitro-phenylsulfanyl)-phenyl]-amide] | –
3 | 16% | COc1ccc(S(=O)(=O)NCCCCCC(=O)Nc2ccc(Sc3ccc([N+](=O)[O-])cc3)cc2)cc1 [Compound V, 6-(4-methoxy-benzenesulfonylamino)-hexanoic acid [4-(4-nitro-phenylsulfanyl)-phenyl]-amide] | –
4 | 14% | CC(C)(C)OC(=O)NCCCC(=O)Nc1ccc(Sc2ccc([N+](=O)[O-])cc2)cc1 [Compound VI, {3-[4-(4-nitro-phenylsulfanyl)-phenylcarbamoyl]-propyl}-carbamic acid tert-butyl ester] | –
5 | 66% | NCCCC(=O)Nc1ccc(Sc2ccc([N+](=O)[O-])cc2)cc1 [Compound VII, 4-amino-N-[4-(4-nitro-phenylsulfanyl)-phenyl]-butyramide] | –
6 | 0% | CC(C)(C)OC(=O)NCCCCCC(=O)Nc1ccc(Sc2ccc([N+](=O)[O-])cc2)cc1 [Compound VIII, {5-[4-(4-nitro-phenylsulfanyl)-phenylcarbamoyl]-pentyl}-carbamic acid tert-butyl ester] | –
7 | 0% | CNS(=O)(=O)c1ccc(C)cc1 [X] | –

Row | Compound | inhibition at 50 µM [1] | binding to BID [2]
8 | Nc1ccc(Sc2ccc(N)cc2)cc1 [XII] | 22% | weak binder
